Positions of bridges follow the written chain, without caps; N, C: chain ends. No end group written: not given here.
What was measured:
Assay type in all cases: cell-based, human
MG63 cells [1] = experiment: Alkaline phosphatase activity of MG63 cells on streptavidin-coated wells treated with biotinylated peptide; settings: MG63 1,000 cells/well, 120 hours after seeding, 50-3200 pmole/well, FIG. 5, versus biotin only
Method: (§1) Cell growth and osteogenic inducing potential of each of the preparations of the biotinylated linear and the cyclic peptides was determined. The osteogenic potential of each peptide was analyzed by quantifying cellular ATP and alkaline phosphatase (AP) activity of osteoblast cells.
(§2) Peptides were added to the wells in titrated amounts (50 pmole/well, 100 pmole/well, 200 pmole/well, 400 pmole/well, 800 pmole/well, 1600 pmole/well, or 3200 pmole/well) and were immobilized on streptavidin-coated plastic well plates (384 wells per plate). The biotin-binding capacity of the plates was 50 pmole/well. Each well was washed to remove unbound biotinylated peptides. […] MG63 cells (1,000 cells/well) were inoculated into each well.
(§3) ATP (RFU/well) was measured at each of 24 hours and 120 hours after cells were seeded, and alkaline phosphatase (AP, RFU standardized by cell number) activity was measured 120 hours after cells were seeded.

MG63 cells [2] = experiment: Cellular ATP in MG63 cells on streptavidin-coated wells treated with biotinylated peptide; settings: MG63 1,000 cells/well, 120 hours after seeding, 50-3200 pmole/well, FIG. 4, versus biotin only
Method: as §1, §2, §3

hMSC cells = experiment: Alkaline phosphatase (AP) in cells contacted with peptide-displaying clones (tertiary screen); settings: for induction of osteoblastic marker enzyme alkaline phosphatase: additional screening of clones
Method: A tertiary screen of the identified peptides was performed. The effect of each peptide on target cells was determined by measuring amounts of osteoblastic marker alkaline phosphatase (AP). Clonally purified individual isolates, or sibling pools of multiple isolates, were tested using the secondary and tertiary screens.
Individual preparations of each bacterial peptide-bearing clone to be tested were induced to express peptides, and were heat-devitalized in boiled water, to kill the peptide-displaying bacteria. Fifty microliters of heat-devitalized bacterial suspension was poured into each well of a 96-well plate containing agar, and the plate was centrifuged at 2000 rpm to embed bacteria in the surface of the agar.
Clones were further tested to quantify amount of stimulation of alkaline phosphatase (AP) activity in contacted cells. […] DNA from this clone that stimulated AP expression was isolated and was sequenced, and the DNA sequence was used to obtain amino acid sequence VFLRGNNSGGRS (SEQ ID NO: 2). This amino acid sequence appears not to have been previously reported.
Osteoinductive peptides with activity that stimulated osteoblasts include: VFLRGNNSGGRS (SEQ ID NO:2), GKIHRHRGQAVE (SEQ ID NO: 3), HIRQMPVRAGLS (SEQ ID NO: 4), RQGVGSNGXIQK (SEQ ID NO: 5), ESHCLLGISCVL (SEQ ID NO: 6), QQLQQNVILET (SEQ ID NO: 7), RSKLVEFRTTG (SEQ ID NO: 8), RNWRMSRRGGM (SEQ ID NO: 9), CVRGRGRMAGSV (SEQ ID NO: 10), ITRGELATVRRS (SEQ ID NO: 11), LRLGVGMGRTC (SEQ ID NO: 12), ERFAGNRNQLQ (SEQ ID NO: 13), GGLGSVGWYWA (SEQ ID NO: 14), GCGKERGRRALK (SEQ ID NO: 15), GQERLWAFRWVP (SEQ ID NO: 16), RGVLRVGTGRSE (SEQ ID NO: 17), ITRGELATVRRS (SEQ ID NO: 18), RPALRLGLIGPS (SEQ ID NO: 19), TRTSVDAPIRX (SEQ ID NO: 20), SKALRGVGSVAS (SEQ ID NO: 21), and RRGQDRGHEPK (SEQ ID NO: 22).

Substance | induction of osteoblastic marker enzyme alkaline phosphatase (hMSC cells) | further results
GEN/cyclic: biotinylated cyclic ESHCLLGISCVL (SEQ ID NO: 6), three mini-PEG repeats, synthesized by GEN (disulfide 4-10 (inferred); also: biotin, three mini-PEG repeats, attachment end not given here) |  | alkaline phosphatase (AP) activity, 120 hours (MG63 cells [1]): induced greater alkaline phosphatase activity than the controls; cellular ATP amounts / cell growth, 120 hours (MG63 cells [2]): stimulated ATP production and cellular growth
RPALRLGLIGPS (The protein was designed and synthesized) [SEQ ID NO: 19] | induced osteoblastic marker enzyme alkaline phosphatase | 
GEN/linear: biotinylated linear ESHCLLGISCVL (SEQ ID NO: 6), three mini-PEG repeats, synthesized by GEN (cysteine pairing not given here; also: biotin, three mini-PEG repeats, attachment end not given here) |  | alkaline phosphatase (AP) activity, 120 hours (MG63 cells [1]): induced greater alkaline phosphatase activity than the controls; cellular ATP amounts / cell growth, 120 hours (MG63 cells [2]): stimulated ATP production and cellular growth; cellular ATP amounts / cell growth, 120 hours (MG63 cells [2]; listed as linear peptides synthesized by GEN): greater ATP amounts than those in wells treated with any of the other peptides
ERFAGNRNQLQ (The protein was designed and synthesized) [SEQ ID NO: 13] | induced osteoblastic marker enzyme alkaline phosphatase | 
GKIHRHRGQAVE (The protein was designed and synthesized) [SEQ ID NO: 3] | induced osteoblastic marker enzyme alkaline phosphatase | 
RNWRMSRRGGM (The protein was designed and synthesized) [SEQ ID NO: 9] | induced osteoblastic marker enzyme alkaline phosphatase | 
ITRGELATVRRS (The protein was designed and synthesized) [SEQ ID NO: 11] | induced osteoblastic marker enzyme alkaline phosphatase | 
SKALRGVGSVAS (The protein was designed and synthesized) [SEQ ID NO: 21] | induced osteoblastic marker enzyme alkaline phosphatase | 
TRTSVDAPIRX [SEQ ID NO: 20] | induced osteoblastic marker enzyme alkaline phosphatase | 
LRLGVGMGRTC (The protein was designed and synthesized) [SEQ ID NO: 12] | induced osteoblastic marker enzyme alkaline phosphatase | 
GCGKERGRRALK (The protein was designed and synthesized) [SEQ ID NO: 15] | induced osteoblastic marker enzyme alkaline phosphatase | 
ESHCLLGISCVL (The protein was designed and synthesized) [SEQ ID NO: 6, osteopontin-like peptide] | induced osteoblastic marker enzyme alkaline phosphatase | alkaline phosphatase (AP) activity, 120 hours (MG63 cells [1]): production of osteogenic marker AP; cellular ATP amounts / cell growth, 120 hours (MG63 cells [2]): induced cell growth
VFLRGNNSGGRS (The protein was designed and synthesized) [SEQ ID NO: 2] | induced osteoblastic marker enzyme alkaline phosphatase | AP expression compared with control cells contacted with empty vector (hMSC cells; clone-contacted cells): an order of magnitude more AP expression
GQERLWAFRWVP (The protein was designed and synthesized) [SEQ ID NO: 16] | induced osteoblastic marker enzyme alkaline phosphatase | 
RQGVGSNGXIQK [SEQ ID NO: 5] | induced osteoblastic marker enzyme alkaline phosphatase | 
CVRGRGRMAGSV (The protein was designed and synthesized) [SEQ ID NO: 10] | induced osteoblastic marker enzyme alkaline phosphatase | 
RGVLRVGTGRSE (The protein was designed and synthesized) [SEQ ID NO: 17] | induced osteoblastic marker enzyme alkaline phosphatase | 
RSKLVEFRTTG (The protein was designed and synthesized) [SEQ ID NO: 8] | induced osteoblastic marker enzyme alkaline phosphatase | 
QQLQQNVILET (The protein was designed and synthesized) [SEQ ID NO: 7] | induced osteoblastic marker enzyme alkaline phosphatase | 
RRGQDRGHEPK (The protein was designed and synthesized) [SEQ ID NO: 22] | induced osteoblastic marker enzyme alkaline phosphatase | 
HIRQMPVRAGLS (The protein was designed and synthesized) [SEQ ID NO: 4] | induced osteoblastic marker enzyme alkaline phosphatase | 
GGLGSVGWYWA (The protein was designed and synthesized) [SEQ ID NO: 14] | induced osteoblastic marker enzyme alkaline phosphatase | 
NEP/linear: biotinylated linear ESHCLLGISCVL (SEQ ID NO: 6), 15 atom-PEG, synthesized by NEP (cysteine pairing not given here; also: biotin, 15 atom-PEG, attachment end not given here) |  | alkaline phosphatase (AP) activity, 120 hours (MG63 cells [1]): induced greater alkaline phosphatase activity than the controls; cellular ATP amounts / cell growth, 120 hours (MG63 cells [2]): stimulated ATP production and cellular growth
NEP/cyclic: biotinylated cyclic ESHCLLGISCVL (SEQ ID NO: 6), 15 atom-PEG, synthesized by NEP (disulfide 4-10 (inferred); also: biotin, 15 atom-PEG, attachment end not given here) |  | alkaline phosphatase (AP) activity, 120 hours (MG63 cells [1]): induced greater alkaline phosphatase activity than the controls; cellular ATP amounts / cell growth, 120 hours (MG63 cells [2]): stimulated ATP production and cellular growth
